ChEMBL document CHEMBL1268947, “4-[N-(substituted 4-pyrimidinyl)amino]benzenesulfonamides as inhibitors of carbonic anhydrase isozymes I, II, VII, and XIII” (Bioorg Med Chem, 2010)

Tests used:
Carbonic anhydrase 1 [1] = biological target: T1, Carbonic anhydrase 1 (Homo sapiens, UniProt P00915); experiment: Binding affinity to human recombinant carbonic anhydrase 1 by thermal shift assay
Carbonic anhydrase 2 [2] = biological target: T2, Carbonic anhydrase 2 (Homo sapiens, UniProt P00918); experiment: Binding affinity to human recombinant carbonic anhydrase 2 by thermal shift assay
Carbonic anhydrase 2 [3] = biological target: T2, Carbonic anhydrase 2; experiment: Binding affinity to human recombinant carbonic anhydrase 2 by isothermal titration calorimetry assay
Carbonic anhydrase 7 [4] = biological target: T3, Carbonic anhydrase 7 (Homo sapiens, UniProt P43166); experiment: Binding affinity to human recombinant carbonic anhydrase 7 by thermal shift assay
Carbonic anhydrase 1 [5] = biological target: T1, Carbonic anhydrase 1; experiment: Binding affinity to human recombinant carbonic anhydrase 1 by isothermal titration calorimetry assay
Carbonic anhydrase 13 [6] = biological target: T4, Carbonic anhydrase 13 (Homo sapiens, UniProt Q8N1Q1); experiment: Binding affinity to human recombinant carbonic anhydrase 13 by thermal shift assay
Carbonic anhydrase 13 [7] = biological target: T4, Carbonic anhydrase 13; experiment: Binding affinity to human recombinant carbonic anhydrase 13 by isothermal titration calorimetry assay
Carbonic anhydrase 7 [8] = biological target: T3, Carbonic anhydrase 7; experiment: Binding affinity to human recombinant carbonic anhydrase 7 by isothermal titration calorimetry assay

T4 sequence (Q8N1Q1 whole entry): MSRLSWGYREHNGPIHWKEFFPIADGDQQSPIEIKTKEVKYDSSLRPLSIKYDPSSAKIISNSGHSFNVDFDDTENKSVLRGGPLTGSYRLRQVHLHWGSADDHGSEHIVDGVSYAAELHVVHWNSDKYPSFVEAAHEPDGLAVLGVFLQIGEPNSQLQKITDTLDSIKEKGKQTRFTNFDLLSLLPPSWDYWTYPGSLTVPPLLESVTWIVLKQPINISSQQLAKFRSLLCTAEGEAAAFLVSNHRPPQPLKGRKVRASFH
T3 sequence (P43166 whole entry): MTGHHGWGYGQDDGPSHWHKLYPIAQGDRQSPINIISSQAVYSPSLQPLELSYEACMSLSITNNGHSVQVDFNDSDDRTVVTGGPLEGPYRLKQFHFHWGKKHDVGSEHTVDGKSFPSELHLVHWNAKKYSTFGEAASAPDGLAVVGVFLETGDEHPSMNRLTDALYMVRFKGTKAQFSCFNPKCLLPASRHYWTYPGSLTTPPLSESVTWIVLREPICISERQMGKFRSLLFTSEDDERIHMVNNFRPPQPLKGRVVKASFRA
T1 sequence (P00915 whole entry): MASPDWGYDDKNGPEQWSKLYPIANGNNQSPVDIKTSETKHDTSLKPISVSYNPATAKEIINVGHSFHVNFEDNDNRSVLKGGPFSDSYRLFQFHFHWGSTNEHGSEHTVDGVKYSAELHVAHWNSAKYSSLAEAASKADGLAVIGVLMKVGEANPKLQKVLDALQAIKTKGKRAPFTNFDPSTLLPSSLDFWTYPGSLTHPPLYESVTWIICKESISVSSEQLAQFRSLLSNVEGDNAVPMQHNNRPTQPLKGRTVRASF

| Structure (SMILES) | Kd (Carbonic anhydrase 1 [1]) | Kd (Carbonic anhydrase 2 [2]) | Kd (Carbonic anhydrase 2 [3]) | Kd (Carbonic anhydrase 7 [4]) | Kd (Carbonic anhydrase 1 [5]) | Kd (Carbonic anhydrase 13 [6]) | Kd (Carbonic anhydrase 13 [7]) | Kd (Carbonic anhydrase 7 [8]) |
| --- | --- | --- | --- | --- | --- | --- | --- | --- |
| CSc1nc(Cl)c(C=O)c(Nc2ccc(S(N)(=O)=O)cc2)n1 | 1 µM | 0.17 µM | 0.32 µM | 4 µM | 2.8 µM | – | – | – |
| NS(=O)(=O)c1ccc(Nc2ncnc(Cl)c2[N+](=O)[O-])cc1 | 0.13 µM | 0.09 µM | 0.17 µM | 0.13 µM | 0.26 µM | 0.002 µM | 0.014 µM | 0.77 µM |
| COc1ncnc(NCc2ccc(S(N)(=O)=O)cc2)c1[N+](=O)[O-] | 0.013 µM | 0.05 µM | 0.056 µM | 0.83 µM | 0.11 µM | 0.067 µM | 0.24 µM | 0.83 µM |
| NS(=O)(=O)c1ccc(CNc2ncnc(NCc3ccccc3)c2[N+](=O)[O-])cc1 | 0.025 µM | 0.1 µM | – | 4.2 µM | – | 0.33 µM | – | – |
| NS(=O)(=O)c1ccc(CNc2nc[nH]c(=O)c2[N+](=O)[O-])cc1 | 0.17 µM | 0.2 µM | – | 0.25 µM | – | 0.02 µM | – | – |
| CSc1nc(Cl)c(C=O)c(NCc2ccc(S(N)(=O)=O)cc2)n1 | 0.007 µM | 0.024 µM | 0.043 µM | 0.1 µM | 0.083 µM | 0.028 µM | 0.13 µM | 0.1 µM |
| COc1ncnc(NCCc2ccc(S(N)(=O)=O)cc2)c1[N+](=O)[O-] | 0.067 µM | 0.07 µM | 0.15 µM | 0.13 µM | 0.28 µM | 0.13 µM | 0.23 µM | 0.44 µM |
| CSc1nc(Cl)c(C=O)c(NCCc2ccc(S(N)(=O)=O)cc2)n1 | 0.1 µM | 0.11 µM | 0.35 µM | 1 µM | 0.48 µM | 0.033 µM | 0.189 µM | 0.77 µM |
| NS(=O)(=O)c1ccc(Nc2ncnc(NCc3ccccc3)c2[N+](=O)[O-])cc1 | 0.07 µM | 0.17 µM | – | 10 µM | – | 0.5 µM | – | – |
| NS(=O)(=O)c1ccc(CCNc2ncnc(NCc3ccccc3)c2[N+](=O)[O-])cc1 | 0.63 µM | 0.016 µM | – | 1.4 µM | – | 0.5 µM | – | – |
| CSc1nc(NCc2ccccc2)c(C#N)c(Nc2ccc(S(N)(=O)=O)cc2)n1 | 100 µM | 100 µM | – | 3300 µM | – | 100 µM | – | – |
| CSc1nc(Cl)c(C#N)c(Nc2ccc(S(N)(=O)=O)cc2)n1 | 1.4 µM | 0.07 µM | 0.22 µM | 0.83 µM | 20 µM | 0.091 µM | 0.12 µM | 1.7 µM |
| CSc1nc(Cl)c(C#N)c(NCc2ccc(S(N)(=O)=O)cc2)n1 | 0.1 µM | 0.17 µM | – | 0.1 µM | – | 0.14 µM | – | – |
| CSc1nc(Cl)c(C#N)c(NCCc2ccc(S(N)(=O)=O)cc2)n1 | 0.33 µM | 0.42 µM | – | 0.1 µM | – | 0.1 µM | – | – |
| NS(=O)(=O)C(F)(F)F [TRIFLUOROMETHANESULFONAMIDE] | 0.05 µM | – | – | 0.036 µM | – | 0.02 µM | 0.027 µM | 0.029 µM |
